Laboratory results reported in patent publication US9617246B2, “Thioether-piperidinyl orexin receptor antagonists” (MERCK SHARP & DOHME CORP., priority 2013, dated 2017).

Experiments:
[1] = target: human orexin-2 receptor (Homo sapiens (Human), UniProt O43614); assay: FLIPR Ca2+ Flux Assay, orexin-2 receptor; assay type: cell-based; conditions: CHO cells, agonist 70 pM Ala-6,12 human orexin-A; read-out: hOX2R FLIPR IC50
Experimental: The utility of the compounds in accordance with the present invention as orexin receptor OX1R and/or OX2R antagonists may be readily determined without undue experimentation by methodology well known in the art, including the “FLIPR Ca^2+ Flux Assay” (Okumura et al., Biochem. Biophys. Res. Comm. 280:976-981, 2001). In a typical experiment the OX1 and OX2 receptor antagonistic activity of the compounds of the present invention was determined in accordance with the following experimental method. For intracellular calcium measurements, Chinese hamster ovary (CHO) cells expressing the rat orexin-1 receptor or the human orexin-2 receptor, are grown in Iscove's modified DMEM containing 2 mM L-glutamine, […], 1% hypoxanthine-thymidine supplement, 100 U/ml penicillin, 100 μg/ml streptomycin and 10% heat-inactivated fetal calf serum (FCS). The cells are seeded at 20,000 cells/well into Becton-Dickinson black 384-well clear bottom sterile plates coated with poly-D-lysine. All reagents were from GIBCO-Invitrogen Corp. The seeded plates are incubated overnight at 37° C. and 5% CO2. Ala-6,12 human orexin-A as the agonist is prepared as a 1 mM stock solution in 1% bovine serum albumin (BSA) and diluted in assay buffer (HBSS containing 20 mM HEPES, 0.1% BSA and 2.5 mM probenecid, pH7.4) for use in the assay at a final concentration of 70 pM. Test compounds are prepared as 10 mM stock solution in DMSO, then diluted in 384-well plates, first in DMSO, then assay buffer. On the day of the assay, cells are washed 3 times with 100 μl assay buffer and then incubated for 60 min (37° C., 5% CO2) in 60 μl assay buffer containing 1 μM Fluo-4AM ester, 0.02% pluronic acid, and 1% BSA. The dye loading solution is then aspirated and cells are washed 3 times with 100 μl assay buffer. 30 μl of that same buffer is left in each well. Within the Fluorescent Imaging Plate Reader (FLIPR, Molecular Devices), test compounds are added to the plate in a volume of 25 μl, incubated for 5 min and finally 25 μl of agonist is added. Fluorescence is measured for each well at 1 second intervals for 5 minutes and the height of each fluorescence peak is compared to the height of the fluorescence peak induced by 70 pM Ala-6,12 orexin-A with buffer in place of antagonist. For each antagonist, IC50 value (the concentration of compound needed to inhibit 50% of the agonist response) is determined. Alternatively, compound potency can be assessed by a radioligand binding assay (described in Bergman et. al. Bioorg. Med. Chem. Lett. 2008, 18, 1425-1430) in which the inhibition constant (Ki) is determined in membranes prepared from CHO cells expressing either the OX1 or OX2 receptor. The intrinsic orexin receptor antagonist activity of a compound which may be used in the present invention may be determined by these assays.

[2] = target: hOX1R (Homo sapiens, UniProt O43613); assay: FLIPR Ca2+ Flux Assay, orexin-1 receptor; assay type: cell-based; conditions: CHO cells, agonist 70 pM Ala-6,12 human orexin-A

human orexin-2 receptor, sequence (O43614 whole entry): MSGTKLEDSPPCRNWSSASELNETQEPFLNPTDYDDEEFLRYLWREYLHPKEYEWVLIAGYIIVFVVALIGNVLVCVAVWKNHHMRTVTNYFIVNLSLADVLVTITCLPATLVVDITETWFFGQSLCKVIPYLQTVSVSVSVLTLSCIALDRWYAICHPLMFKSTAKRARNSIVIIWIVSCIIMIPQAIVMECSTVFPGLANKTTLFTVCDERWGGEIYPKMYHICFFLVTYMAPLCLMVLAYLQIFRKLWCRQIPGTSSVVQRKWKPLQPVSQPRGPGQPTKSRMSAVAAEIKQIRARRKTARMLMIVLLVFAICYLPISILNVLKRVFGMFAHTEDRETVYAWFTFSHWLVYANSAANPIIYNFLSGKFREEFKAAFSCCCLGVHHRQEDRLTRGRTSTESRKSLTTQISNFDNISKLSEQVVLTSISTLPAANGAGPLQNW

SMILES | IC50 [1] [nM] | IC50 [2] [nM]
COC(=O)c1c(C)ccnc1S[C@@H]1CC[C@@H](C)N(C(=O)c2ccccc2-n2nccn2)C1 [Example 1, Methyl 4-methyl-2-{[(3R,6R)-6-methyl-1-{[2-(2H-1,2,3-triazol-2-yl)phenyl]carbonyl}-piperidin-3-yl]sulfanyl}pyridine-3-carboxylate] | 22.2 | 27.8
Cc1cc(C#N)cc(S[C@@H]2CC[C@@H](C)N(C(=O)c3ccccc3-n3nccn3)C2)n1 [Example 2, 2-methyl-6-{[(3R,6R)-6-methyl-1-{[2-(2H-1,2,3-triazol-2-yl)phenyl]carbonyl}piperidin-3-yl]sulfanyl}pyridine-4-carbonitrile] | 82.9 | 1540
COC(=O)c1cccnc1S[C@@H]1CC[C@@H](C)N(C(=O)c2ccccc2-n2nccn2)C1 [Example 3, methyl 2-{[(3R,6R)-6-methyl-1-{[2-(2H-1,2,3-triazol-2-yl)phenyl]carbonyl}piperidin-3-yl]sulfanyl}pyridine-3-carboxylate] | 23.9 | 48.1
COC(=O)c1c(I)ccnc1S[C@@H]1CC[C@@H](C)N(C(=O)c2ccccc2-n2nccn2)C1 [Example 4, methyl 4-iodo-2-{[(3R,6R)-6-methyl-1-{[2-(2H-1,2,3-triazol-2-yl)phenyl]carbonyl}piperidin-3-yl]sulfanyl}pyridine-3-carboxylate] | 23.6 | 54.4
C[C@@H]1CC[C@@H](Sc2ccccn2)CN1C(=O)c1ccccc1-n1nccn1 [Example 7, 2-{[(3R,6R)-6-methyl-1-{[2-(2H-1,2,3-triazol-2-yl)phenyl]carbonyl}piperidin-3-yl]sulfanyl}pyridine] | 179 | 1630
C[C@@H]1CC[C@@H](Sc2ccc(C(F)(F)F)cn2)CN1C(=O)c1ccccc1-n1nccn1 [Example 8, 2-{[(3R,6R)-6-methyl-1-{[2-(2H-1,2,3-triazol-2-yl)phenyl]carbonyl}piperidin-3-yl]sulfanyl}-5-(trifluoromethyl)pyridine] | 322 | 596
C[C@@H]1CC[C@@H](Sc2cc(C#N)ccn2)CN1C(=O)c1ccccc1-n1nccn1 [Example 9, 2-{[(3R,6R)-6-methyl-1-{[2-(2H-1,2,3-triazol-2-yl)phenyl]carbonyl}piperidin-3-yl]sulfanyl}pyridine-4-carbonitrile] | 13.5 | 1410
Cc1ccnc(S[C@@H]2CC[C@@H](C)N(C(=O)c3ccccc3-n3nccn3)C2)c1C#N [Example 10, 4-methyl-2-{[(3R,6R)-6-methyl-1-{[2-(2H-1,2,3-triazol-2-yl)phenyl]carbonyl}piperidin-3-yl]sulfanyl}pyridine-3-carbonitrile] | 24.2 | 634
Cc1ccnc(S[C@@H]2CC[C@@H](C)N(C(=O)c3ccccc3-n3nccn3)C2)c1 [Example 11, 4-methyl-2-{[(3R,6R)-6-methyl-1-{[2-(2H-1,2,3-triazol-2-yl)phenyl]carbonyl}piperidin-3-yl]sulfanyl}pyridine] | 20 | 440
COC(=O)c1ccnc(S[C@@H]2CC[C@@H](C)N(C(=O)c3ccccc3-n3nccn3)C2)c1 [Example 13, methyl 2-{[(3R,6R)-6-methyl-1-{[2-(2H-1,2,3-triazol-2-yl)phenyl]carbonyl}piperidin-3-yl]sulfanyl}pyridine-4-carboxylate] | 297 | 6310
COc1ccc(C(=O)N2C[C@H](Sc3cc(C#N)ccn3)CC[C@H]2C)c(-n2nccn2)n1 [Example 14, 2-{[(3R,6R)-1-{[6-Methoxy-2-(2H-1,2,3-triazol-2-yl)pyridin-3-yl]carbonyl}-6-methylpiperidin-3-yl]sulfanyl}pyridine-4-carbonitrile] | 149 | 10000
C[C@@H]1CC[C@@H](Sc2cc(C#N)ccn2)CN1C(=O)c1c(F)cccc1-n1nccn1 [Example 16, 2-{[(3R,6R)-1-{[2-fluoro-6-(2H-1,2,3-triazol-2-yl)phenyl]carbonyl}-6-methylpiperidin-3-yl]sulfanyl}pyridine-4-carbonitrile] | 51.4 | 2350
COc1cccc(-n2nccn2)c1C(=O)N1C[C@H](Sc2cc(C#N)ccn2)CC[C@H]1C [Example 17, 2-{[(3R,6R)-1-{[2-methoxy-6-(2H-1,2,3-triazol-2-yl)phenyl]carbonyl}-6-methylpiperidin-3-yl]sulfanyl}pyridine-4-carbonitrile] | 51.2 | 5880
Cc1cccc(C(=O)N2C[C@H](Sc3cc(C#N)ccn3)CC[C@H]2C)c1-n1nccn1 [Example 18, 2-{[(3R,6R)-6-methyl-1-{[3-methyl-2-(2H-1,2,3-triazol-2-yl)phenyl]carbonyl}piperidin-3-yl]sulfanyl}pyridine-4-carbonitrile] | 14.4 | 803
C[C@@H]1CC[C@@H](Sc2cc(C#N)ccn2)CN1C(=O)c1cccc(F)c1-n1nccn1 [Example 19, 2-{[(3R,6R)-1-{[3-fluoro-2-(2H-1,2,3-triazol-2-yl)phenyl]carbonyl}-6-methylpiperidin-3-yl]sulfanyl}pyridine-4-carbonitrile] | 20.8 | 2550
C[C@@H]1CC[C@@H](Sc2cc(C#N)ccn2)CN1C(=O)c1ccc(Cl)cc1-n1nccn1 [Example 20, 2-{[(3R,6R)-1-{[4-chloro-2-(2H-1,2,3-triazol-2-yl)phenyl]carbonyl}-6-methylpiperidin-3-yl]sulfanyl}pyridine-4-carbonitrile] | 15.5 | 1030
C[C@@H]1CC[C@@H](Sc2cc(C#N)ccn2)CN1C(=O)c1ccc(F)cc1-n1nccn1 [Example 21, 2-{[(3R,6R)-1-{[4-fluoro-2-(2H-1,2,3-triazol-2-yl)phenyl]carbonyl}-6-methylpiperidin-3-yl]sulfanyl}pyridine-4-carbonitrile] | 26.1 | 2720
Cc1ccc(C(=O)N2C[C@H](Sc3cc(C#N)ccn3)CC[C@H]2C)c(-n2nccn2)c1 [Example 22, 2-{[(3R,6R)-6-methyl-1-{[4-methyl-2-(2H-1,2,3-triazol-2-yl)phenyl]carbonyl}piperidin-3-yl]sulfanyl}pyridine-4-carbonitrile] | 49 | 1500
COc1ccc(C(=O)N2C[C@H](Sc3cc(C#N)ccn3)CC[C@H]2C)c(-n2nccn2)c1 [Example 23, 2-{[(3R,6R)-1-{[4-methoxy-2-(2H-1,2,3-triazol-2-yl)phenyl]carbonyl}-6-methylpiperidin-3-yl]sulfanyl}pyridine-4-carbonitrile] | 224 | 7820
C[C@@H]1CC[C@@H](Sc2cc(C#N)ccn2)CN1C(=O)c1cc(Br)ccc1-n1nccn1 [Example 24, 2-{[(3R,6R)-1-{[5-bromo-2-(2H-1,2,3-triazol-2-yl)phenyl]carbonyl}-6-methylpiperidin-3-yl]sulfanyl}pyridine-4-carbonitrile] | 14.9 | 489
C[C@@H]1CC[C@@H](Sc2cc(C#N)ccn2)CN1C(=O)c1cc(Cl)ccc1-n1nccn1 [Example 25, 2-{[(3R,6R)-1-{[5-chloro-2-(2H-1,2,3-triazol-2-yl)phenyl]carbonyl}-6-methylpiperidin-3-yl]sulfanyl}pyridine-4-carbonitrile] | 214 | 4860
C[C@@H]1CC[C@@H](Sc2cc(C#N)ccn2)CN1C(=O)c1ccccc1-c1ccccc1 [Example 28, 2-{[(3R,6R)-1-(biphenyl-2-ylcarbonyl)-6-methylpiperidin-3-yl]sulfanyl}pyridine-4-carbonitrile] | 16.7 | 279
C[C@@H]1CC[C@@H](Sc2cc(C#N)ccn2)CN1C(=O)c1ccccc1Oc1ccccc1 [Example 29, 2-({(3R,6R)-6-methyl-1-[(2-phenoxyphenyl)carbonyl]piperidin-3-yl}sulfanyl)pyridine-4-carbonitrile] | 62.7 | 10000
C[C@@H]1CC[C@@H](Sc2cc(C#N)ccn2)CN1C(=O)c1ccccc1C1CC1 [Example 30, 2-({(3R,6R)-1-[(2-cyclopropylphenyl)carbonyl]-6-methylpiperidin-3-yl}sulfanyl)pyridine-4-carbonitrile] | 18.3 | 4070
